For orientation: IC50 means the concentration that gives 50% inhibition. In general, Ki refers to a measure of affinity in units of concentration, obtained from inhibition or displacement. One may read the melting point as the temperature, or range, at which the solid turns liquid.

SMILES strings stand for the structures. Like-named read-outs stand apart in the source and are kept apart here.

This is an account of results in PMC9602571, “Discovery of a Dual SENP1 and SENP2 Inhibitor” (International Journal of Molecular Sciences, 2022).

Series [1] has as its target T1, SENP1 (Homo sapiens, UniProt Q9P0U3).
T1 construct: Human recombinant, His6-SENP1 Catalytic Domain; His6 (N); purchased Boston Biochem (Bio-Techne AG) E-700
T1 sequence (Q9P0U3 450-613 limits assumed): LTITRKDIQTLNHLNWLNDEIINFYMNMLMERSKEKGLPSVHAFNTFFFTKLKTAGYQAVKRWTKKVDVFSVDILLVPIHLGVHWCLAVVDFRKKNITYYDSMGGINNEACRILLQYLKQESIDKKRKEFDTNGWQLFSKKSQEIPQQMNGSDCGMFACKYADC
The series can be described thus: Fluorogenic SENP1 assay, SUMO1-AMC substrate. Type of series: biochemical. As to the method:
Human recombinant, His6-SENP1 Catalytic Domain (Boston Biochem Cat# E-700, Bio-Techne AG, Zug, Switzerland) was prepared in reaction buffer (50 mM HEPES, 150 mM NaCl, 0.5 mM EDTA, 1 mM DTT, pH 7.5, 0.01% CHAPS). To this solution, a 20 mM or 50 mM inhibitor stock solution in DMSO was added and the mixture was incubated for 15 min at ambient temperature. […] The slope was calculated using Excel and the curve fits were performed using GraphPad Prism7 with a four-parameter least-squares fit. The final reaction conditions contained 0.02 nM SENP1 and 300 nM SUMO1/2 or 3-AMC).

Series [2] concerns the target T1, SENP1. The series can be described thus: Fluorogenic SENP1 assay, SUMO3-AMC substrate. Type of series: biochemical. To be noted: n = 2. As for the experimental part: Human recombinant, His6-SENP1 Catalytic Domain (Boston Biochem Cat# E-700, Bio-Techne AG, Zug, Switzerland) was prepared in reaction buffer (50 mM HEPES, 150 mM NaCl, 0.5 mM EDTA, 1 mM DTT, pH 7.5, 0.01% CHAPS). To this solution, a 20 mM or 50 mM inhibitor stock solution in DMSO was added and the mixture was incubated for 15 min at ambient temperature. […] The data were analyzed by taking the slope (signal/time) of the linear portion of measurement. The slope was calculated using Excel and the curve fits were performed using GraphPad Prism7 with a four-parameter least-squares fit. The final reaction conditions contained 0.02 nM SENP1 and 300 nM SUMO1/2 or 3-AMC).

In another series the target is T2, UCHL1 (Homo sapiens, UniProt P09936).
T2 construct: purchased SignalChem U22-30H
T2 sequence (P09936 1-223): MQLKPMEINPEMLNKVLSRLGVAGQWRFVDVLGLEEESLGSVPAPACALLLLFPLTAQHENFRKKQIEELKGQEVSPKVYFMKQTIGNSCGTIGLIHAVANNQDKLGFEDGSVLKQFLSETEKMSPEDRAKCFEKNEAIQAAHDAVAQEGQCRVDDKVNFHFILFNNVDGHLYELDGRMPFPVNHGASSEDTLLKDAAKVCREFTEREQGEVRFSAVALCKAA
As to the kind of experiment: UCHL1 activity assay, Ubiquitin-AMC substrate. Format: biochemical. To be noted: n = 2. As for the experimental part: (§1) IC50 measurements were conducted at Reaction Biology Corporation, Malvern, PA, USA, with two replications using 10 concentrations starting at 200 μM with three-fold dilution. Curve fits were performed where the enzyme activities at the highest concentration of compounds were less than 65%. UCHL1 II was used as a control inhibitor. The procedure was performed analogous to the fluorogenic SENP2 assay described in 3.3.2. using the UCHL1 enzyme (SignalChem Cat# U22-30H) and Ubiquitin-AMC substrate (Enzo Cat# BML-SE211-0025). The final reaction conditions contained 0.2 nM UCHL1 and 100 nM Ubiquitin-AMC.

Another series addresses T3, Ataxin-3 (Homo sapiens, UniProt P54252).
T3 construct: purchased BPS 80399
The series can be described thus: Ataxin-3 activity assay, Ubiquitin-AMC substrate. Type of series: biochemical. To be noted: n = 2. As for the experimental part:
as §1, with “the Ataxin-3” for “the UCHL1”, “enzyme (BPS” for “enzyme (SignalChem”, “Cat# 80399)” for “Cat# U22-30H)”, “contained 500” for “contained 0.2”, “nM Ataxin-3” for “nM UCHL1”

Series [3] deals with T1, SENP1. As to the kind of experiment: Mode of inhibition study, SENP1 and SUMO1-AMC kinetic measurement. Type of series: biochemical. As for the experimental part: A mode of inhibition study with 11 was performed by kinetic measurement with SENP1 and SUMO1-AMC employing five different substrate concentrations (Figure 4). The IC50 values […] slightly by lowering the SUMO1-AMC substrate concentration from 1000 nM to 62.5 nM, indicating a slight binding preference to the SUMO1-SENP1 complex (Figure 4A).
IC50 measurements were performed with at least two replications using eight concentrations starting at 200 μM and for the fragments at 500 μM with three-fold dilution. Human recombinant, His6-SENP1 Catalytic Domain (Boston Biochem Cat# E-700, Bio-Techne AG, Zug, Switzerland) was prepared in reaction buffer (50 mM HEPES, 150 mM NaCl, 0.5 mM EDTA, 1 mM DTT, pH 7.5, 0.01% CHAPS). To this solution, a 20 mM or 50 mM inhibitor stock solution in DMSO was added and the mixture was incubated for 15 min at ambient temperature. The substrate SUMO1/2 or 3-AMC (SUMO1-AMC; Boston Biochem Cat# UL-551; SUMO2-AMC; Boston Biochem Cat# UL-758; SUMO3-AMC; Boston Biochem Cat# UL-768; Bio-Techne AG, Zug, Switzerland) was delivered to a 96 well-plate to initiate the reaction. The enzyme activities were monitored (Ex/Em = 355/460 nm) as a time-course measurement of the increase in fluorescence signal from SUMO1/2 or 3-AMC for 60 min at 25 °C. The data were analyzed by taking the slope (signal/time) of the linear portion of measurement. The slope was calculated using Excel and the curve fits were performed using GraphPad Prism7 with a four-parameter least-squares fit. The final reaction conditions contained 0.02 nM SENP1 and 300 nM SUMO1/2 or 3-AMC).

T3 sequence (P54252 whole entry): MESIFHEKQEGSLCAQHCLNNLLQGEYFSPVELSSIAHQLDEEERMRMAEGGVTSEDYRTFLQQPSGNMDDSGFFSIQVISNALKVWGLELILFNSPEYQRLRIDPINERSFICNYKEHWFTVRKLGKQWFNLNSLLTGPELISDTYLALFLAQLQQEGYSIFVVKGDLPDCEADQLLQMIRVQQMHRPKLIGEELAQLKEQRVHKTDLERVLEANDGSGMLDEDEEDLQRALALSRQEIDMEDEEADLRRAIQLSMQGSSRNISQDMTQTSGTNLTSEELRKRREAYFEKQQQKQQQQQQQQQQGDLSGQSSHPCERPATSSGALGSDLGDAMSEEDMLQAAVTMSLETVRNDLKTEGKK

Consider `O=C(Cn1nnc(-c2ccccc2)n1)N1c2ccccc2NC(=O)C12CCCC2` [Compound 11, 1′-[2-(5-Phenyl-2H-1,2,3,4-tetrazol-2-yl)acetyl]-3′,4′-dihydro-1′H-spiro[cyclopentane-1,2′-quinoxalin]-3′-one], for which the melting point is 237 °C (dec.). Besides, at SENP1 [1] (SUMO1-AMC 300 nM, 0.02 nM SENP1, interval in parentheses, read-out: IC50 SENP1), the IC50 came to 8.6 µM. For the same compound, at SENP1 [1] (screening library samples, SUMO1-AMC, read-out: IC50 SENP1 of hit molecules), the 50% inhibitory concentration (IC50) turned out to be 5.1 µM. Besides, half-maximal inhibition against SENP1 [2] (IC50) required 59 µM. At UCHL1, this compound returned an IC50 of 77 µM. Moreover, at Ataxin-3, the IC50 worked out at 68 µM. For the same compound, at SENP1 [3] (global Michaelis-Menten fit), the “alpha (mixed inhibition model)” value came to 0.23. Besides, on SENP1 [3] (global Michaelis-Menten fit, GraphPad Prism, read-out: KI (mixed inhibition model)), the inhibition constant Ki amounted to 10.6 µM. Also, on SENP1 [3] (global fit, unit inferred, read-out: Ki (Figure 4B)), the Ki came out at 10.6 µM. In addition, the IC50 at SENP1 [3] (substrate 62.5 nM, read-out: IC50 at SUMO1-AMC 62.5 nM) came to 6.65 µM. Besides, on SENP1 [3] (substrate 125 nM, read-out: IC50 at SUMO1-AMC 125 nM), the IC50 is 5.82 µM. At SENP1 [3] (substrate 250 nM, read-out: IC50 at SUMO1-AMC 250 nM), the half-inhibitory concentration (IC50) was found to be 4.72 µM. On SENP1 [3] (substrate 500 nM, read-out: IC50 at SUMO1-AMC 500 nM), the IC50 stood at 4.04 µM. For the same compound, the IC50 at SENP1 [3] (substrate 1000 nM, read-out: IC50 at SUMO1-AMC 1000 nM) came to 3.15 µM.
